Each structure is given as a SMILES string. ≈ marks a conversion by molar mass, not a printed value.

Test system in one data set: not listed separately
In words: Cytotoxicity (inhibition of cell growth) in actively dividing Vero cells, CellTiter 96 assay. As to conditions: african green monkey, 4 day incubation, read-out: Cytotoxicity (TC50). The format is cell-based. As to the method:
(§1) Vero and MRC-5 cells were obtained from ATCC. Human foreskin fibroblast (HFF) and Vero cells were routinely grown in minimal essential medium (MEM) with Earle salts [MEM(E)]supplemented with 10% fetal bovine serum (FBS). MRC-5 cells were grown in Basal Medium Eagle (BME) with 10% FBS and 0.035% NaHCO3. Cells were passaged according to conventional procedures.^33 Human cytomegalovirus (HCMV) strains AD169 and Towne were obtained from the ATCC. Herpes simplex virus type i and type 2 (HSV1 and HSV2) are commercially available.
(§2) Stationary uninfected HFF and MRC-5 cells were evaluated for visual cytotoxicity on the scoring basis of 0 (no visual cytotoxicity at 20 fold magnification) to 4 (cell sheet nearly destroyed). Cytotoxicity as measured by inhibition of cell growth was performed in Vero cells using a CellTiter 96™ Aqueous Non-Radioactivity Cell Proliferation Assay (Promega). Cytotoxicity assays were performed using a 4 day incubation of test compound with Vero cells plated at 500 cells/well. Each assay was performed in quadruplicate. The resultant data are averaged, graphed and then used to calculate the TC50 (median toxic concentration) for the compound tested.
III. […] For all values listed as >x, x is the highest concentration tested for the respective compound.
In the case of `C=CCCCn1c(=O)sc2c(=O)[nH]c(N)nc21` [Compound R1132-75, 5-Amino-3-(pent-4-ene-1-yl)thiazolo[4,5-d]-pyrimidine-2,7(3H, 6H)-dione], the CC50 at 96 h was 45 µg/mL (≈ 178 µM).

For the compound `CCC(CC)n1c(=O)sc2c(=O)[nH]c(N)nc21` [Compound R1132-76, 5-Amino-3-(pentan-3-yl)thiazolo[4,5-d]-pyrimidine-2,7(3H, 6 H)-dione], the CC50 at 96 h was found to be 56 µg/mL (≈ 220 µM).

Regarding `Nc1nc2c(ncn2COCCO)c(=O)[nH]1` [acyclovir, 9-(2-hydroxyethoxymethyl)guanine, reference compound], the CC50 at 96 h was over 100 µg/mL.

The test system of a further data set is Human cytomegalovirus (HCMV) strain AD169. Briefly: HCMV plaque reduction (cytopathic effect) assay, strain AD169 in MRC-5 cells. The format is cell-based. Particulars: Human betaherpesvirus 5, AD169/MRC5, read-out: IC50 (median inhibitory concentration). Here is the method:
as §1
Two different plaque reduction assays were employed to determine the antiviral efficacy of the test compounds in culture. The first assay used MRC-5 cells and the AD169 strain of HCMV. The second assay used HFF cells and the Towne strain of HCMV. In experiments using MRC-5 cells the growth medium was removed from monolayer cultures in 24-well tissue culture plates. One mL of virus (AD169), diluted in test medium (Dulbecco's modified Eagle medium (DMEM), 2% FBS, 0.1% NaHCO3 and 50 ug gentamicin/mL) was used. The 24-well plates were centrifuged at 2200 rpm for 30 minutes at room temperature to allow the virus to adsorb. Medium was then aspirated from each well of the plates. The individual dilutions of each compound (prepared in test medium) were placed in each test well (0.8 mL/well, 4 wells/dilution). All plates were incubated at 37° C. in a moist atmosphere of 5% CO2. When virus plaques had formed in control cells (HCMV infected, untreated) the medium was aspirated from all wells, and the cells were stained by adding 0.3 mL of 0.2% crystal violet in 10% buffered formalin to each well. After 15 minutes, the stain was removed, cells were rinsed in tap water until the water was clear, and the plates were inverted and dried at room temperature. Plaques were counted by use of a dissecting microscope.
(§3) Ganciclovir was used as an anti-HCMV standard in all HCMV assays.
(§4) I. A series of guanine analogs containing an alkyl side chain in place of sugar moiety were evaluated for their ability to inhibit HCMV production in acute infection assays in culture and for cytotoxicity in HFF and MRC-5 cells.
(§5) III. Table 1 lists the median inhibitory concentration (IC50) for all compounds tested against HCMV strains AD169 or Towne. In addition this table lists the median toxic concentrations of these compounds (TC50) as determined by visual observation of uninfected cells treated with various concentrations of drug.
Plaque reduction assays were employed to determine the antiviral efficacy of the test compounds in culture. MRC-5 cells and the AD169 strain of FICMV were used. Growth medium was removed from monolayer cultures in 24-well tissue culture plates. One ml of virus, diluted in test medium (Dulbecco's modified Eagle medium (DMEM), 2% FBS, 0.1% NaHCO3 and 50 ug gentamicin/ml). After infection and subsequent removal of the media, individual dilutions of each compound (prepared in test medium) were placed in each test well (0.8 ml/well, 4 wells/dilution) and plates incubated at 37° C. in a moist atmosphere of 5% CO2. When virus plaques have formed in control cells (HCMV infected, untreated) the medium was aspirated from all wells, and the cells stained by adding 0.3 ml of 0.2% crystal violate in 10% buffered formalin to each well. Plaques were counted by use of a dissecting microscope. Ganciclovir was used as an anti-HCMV standard in all HCMV assays.
Background: Cytopathic effects are the visible damage that an infection or toxin causes in cultured cells.
As for `C=CCCCn1c(=O)sc2c(=O)[nH]c(N)nc21` [Compound R1132-75, 5-Amino-3-(pent-4-ene-1-yl)thiazolo[4,5-d]-pyrimidine-2,7(3H, 6H)-dione], the IC50 came to 9.4 µg/mL (≈ 37.3 µM).

As to `CCC(CC)n1c(=O)sc2c(=O)[nH]c(N)nc21` [Compound R1132-76, 5-Amino-3-(pentan-3-yl)thiazolo[4,5-d]-pyrimidine-2,7(3H, 6 H)-dione], the IC50 is over 100 µg/mL.

`CCCCCC(CCCCC)n1c(=O)sc2c(=O)[nH]c(N)nc21` [Compound R1132-77, 5-Amino-3-(undecan-6-yl)thiazolo[4,5-d]-pyrimidine-2,7(3H,6H)-dione]: the IC50 stood at 12 µg/mL (≈ 35.5 µM).

As to `Nc1nc2c(ncn2COC(CO)CO)c(=O)[nH]1` [Ganciclovir, 9-(1-hydroxymethyl-2-hydroxyethoxymethyl)guanine, reference compound], the IC50 came out at 2.1 µg/mL (≈ 8.23 µM).

The test system of the next data set is DNA viruses.
Assay: not given
As to conditions: literature refs. 14-17; cited from earlier work.
As for `O=c1[nH]c(=O)n([C@@H]2O[C@H](CO)[C@@H](O)[C@@H]2F)cc1I` [FIAU, 1-(2-deoxy-2-fiuoro-β-D-arabinofuranosyl)-5-iodouracil], the “activity against several DNA viruses” value is “potent agents against several DNA viruses”.

Turning to `Cc1cn([C@@H]2O[C@H](CO)[C@@H](O)[C@@H]2F)c(=O)[nH]c1=O` [FMAU, 1-(2-deoxy-2-fiuoro-β-D-arabinofuranosyl)thymine], the “activity against several DNA viruses” value is given as “potent agents against several DNA viruses”.

The test system of the next data set is Human cytomegalovirus (HCMV) strain Towne. In words: HCMV plaque reduction (cytopathic effect) assay, strain Towne in HFF cells. The format is cell-based. Particulars: Human betaherpesvirus 5, HFF, read-out: IC50 (median inhibitory concentration). Here is the method: as §1
A similar set of experiments designed to monitor HCMV plaque reduction were performed with monolayer cultures of HFF and the Towne strain of HCMV using procedures similar to those reported by Turk et al.^34 Diploid HFF cells were plated 24 hr before use at approximately 1×10^5 cells/plate. These monolayer cultures were infected with 100 plaque forming units (PFU) of virus. The compounds to be assayed were dissolved in culture medium. Viral adsorption was allowed to proceed for 1 hr at which time virus containing medium was removed and replaced with medium containing the various dilutions of the test compounds. Plaques were counted using crystal violet as described above.
as §3, §4, §5
As to `C=CCCCn1c(=O)sc2c(=O)[nH]c(N)nc21` [Compound R1132-75, 5-Amino-3-(pent-4-ene-1-yl)thiazolo[4,5-d]-pyrimidine-2,7(3H, 6H)-dione], the IC50 came out at 12 µg/mL (≈ 47.6 µM).

As to `Nc1nc2c(ncn2COC(CO)CO)c(=O)[nH]1` [Ganciclovir, 9-(1-hydroxymethyl-2-hydroxyethoxymethyl)guanine, reference compound], the IC50 is 2.7 µg/mL (≈ 10.6 µM).

Test system in a further data set: not listed separately
In words: Visual cytotoxicity in stationary uninfected HFF cells. The format is cell-based. Particulars: human; Towne/HFF system; visual observation of stationary uninfected HFF cells; read-out: TC50 (median toxic concentration). As to the method: as §1, §2, §4, §5
On to `C=CCCCn1c(=O)sc2c(=O)[nH]c(N)nc21` [Compound R1132-75, 5-Amino-3-(pent-4-ene-1-yl)thiazolo[4,5-d]-pyrimidine-2,7(3H, 6H)-dione], for which the CC50 was over 100 µg/mL.

As for `Nc1nc2c(ncn2COC(CO)CO)c(=O)[nH]1` [Ganciclovir, 9-(1-hydroxymethyl-2-hydroxyethoxymethyl)guanine, reference compound], the CC50 was over 100 µg/mL.

Test system in another data set: not listed separately
In words: Visual cytotoxicity in stationary uninfected MRC-5 cells. The format is cell-based. Particulars: human, AD169/MRC5 system, visual observation of stationary uninfected MRC5 cells, read-out: TC50 (median toxic concentration). Here is the method: as §2, §4, §5
`C=CCCCn1c(=O)sc2c(=O)[nH]c(N)nc21` [Compound R1132-75, 5-Amino-3-(pent-4-ene-1-yl)thiazolo[4,5-d]-pyrimidine-2,7(3H, 6H)-dione]: the CC50 came to 68 µg/mL (≈ 270 µM).

Regarding `CCC(CC)n1c(=O)sc2c(=O)[nH]c(N)nc21` [Compound R1132-76, 5-Amino-3-(pentan-3-yl)thiazolo[4,5-d]-pyrimidine-2,7(3H, 6 H)-dione], the CC50 was found to be 32 µg/mL (≈ 126 µM).

Take `CCCCCC(CCCCC)n1c(=O)sc2c(=O)[nH]c(N)nc21` [Compound R1132-77, 5-Amino-3-(undecan-6-yl)thiazolo[4,5-d]-pyrimidine-2,7(3H,6H)-dione]: the CC50 was 52 µg/mL (≈ 154 µM).

As to `Nc1nc2c(ncn2COC(CO)CO)c(=O)[nH]1` [Ganciclovir, 9-(1-hydroxymethyl-2-hydroxyethoxymethyl)guanine, reference compound], the CC50 was over 900 µg/mL.

Another data set concerns Herpes simplex virus type 2 (HSV2). In words: Inhibition of HSV2 in Vero cells (CPE assay). The format is cell-based. Particulars: Human alphaherpesvirus 2, CPE scored 40 to 48 h post-infection. As to the method:
as §1
(§6) Vero cells were plated at 4×10^4 cells/well in a 96-well microtitre dish in 0.1 mL of MEM(E) with 10% FBS 24 h before infection with virus. The cells were incubated at 37° C. in a 5% CO2 atmosphere. The medium was then removed and 50 μL of media containing 30 to 50 PFU of virus was allowed to adsorb to the cells for 10 minutes at 37° C. The virus containing medium was then removed and the cells were rinsed 3 times with fresh media. A final 100 μL aliquot of fresh medium, containing the various dilutions of test compounds, was then added to each well and the plates were then incubated at 37° C. Plaques were observed 24 hr post-infection and the degree of cytopathic effect scored 40 to 48 h post-infection. Acyclovir was used as a standard in all ttSV assays.
(§7) I. The same compounds used in Example 31 were also assayed for their ability to inhibit herpes simplex viruses type 1 and type 2 in acute infection assays in culture.
(§8) III. The toxic effect of these compounds on actively dividing Vero cells is reported. For all values listed as >x, x is the highest concentration tested for the respective compound.
(§9) Vero cells were plated in a 96-well microtitre dish in 0.1 ml of MEM(E) with 10% FBS 24 hours before infection with virus. The medium will then be removed and 50 ul of media containing 30 to 50 PFU of virus were allowed to adsorb to the cells for 10 minutes at 37° C. The virus-containing medium will then be removed and the cells rinsed 3 times with fresh media. A final 100 ul aliquot of fresh medium, containing the various dilutions of test compounds, were added to each well and the plates incubated at 37° C. Plaques were observed 24 hours post-infection and the degree of cytopathic effect scored 40 to 48 hours-post infection. Acyclovir was used as a standard in all HSV assays.
On to `C=CCCCn1c(=O)sc2c(=O)[nH]c(N)nc21` [Compound R1132-75, 5-Amino-3-(pent-4-ene-1-yl)thiazolo[4,5-d]-pyrimidine-2,7(3H, 6H)-dione], for which the IC50 turned out to be 8.1 µg/mL (≈ 32.1 µM).

`CCC(CC)n1c(=O)sc2c(=O)[nH]c(N)nc21` [Compound R1132-76, 5-Amino-3-(pentan-3-yl)thiazolo[4,5-d]-pyrimidine-2,7(3H, 6 H)-dione] gave an IC50 of 21.7 µg/mL (≈ 85.3 µM).

The compound `Nc1nc2c(ncn2COCCO)c(=O)[nH]1` [acyclovir, 9-(2-hydroxyethoxymethyl)guanine, reference compound] returned an IC50 of 0.2 µg/mL (≈ 0.888 µM).

For a further data set, the system named is Herpes simplex virus type 1 (HSV1). In words: Inhibition of HSV1 in Vero cells (CPE assay). The format is cell-based. As to conditions: Human alphaherpesvirus 1, CPE scored 40 to 48 h post-infection. Here is the method:
as §1, §6, §7, §8, §9
On to `C=CCCCn1c(=O)sc2c(=O)[nH]c(N)nc21` [Compound R1132-75, 5-Amino-3-(pent-4-ene-1-yl)thiazolo[4,5-d]-pyrimidine-2,7(3H, 6H)-dione], for which the IC50 amounted to 16.2 µg/mL (≈ 64.4 µM).

For `CCC(CC)n1c(=O)sc2c(=O)[nH]c(N)nc21` [Compound R1132-76, 5-Amino-3-(pentan-3-yl)thiazolo[4,5-d]-pyrimidine-2,7(3H, 6 H)-dione], the IC50 is over 21.7 µg/mL.

In the case of `Nc1nc2c(ncn2COCCO)c(=O)[nH]1` [acyclovir, 9-(2-hydroxyethoxymethyl)guanine, reference compound], the IC50 is 0.2 µg/mL (≈ 0.888 µM).

Source of the values: patent US5446045A, “Antiviral guanine analogs” (priority 1993, dated 1995).
